Consider 22 compounds from PubChem BioAssay (NCI).

Test systems include RXF 393 renal; SW-620 colon; HCT-116 colon; UO-31 renal; HCC-2998 colon; RPMI-8226 leukemia; UACC-257 melanoma; SR leukemia; EKVX NSCLC; OVCAR-4 ovarian.
What all share (experiment): NCI-60 cell line screen, 48 h

Values joined by “and” are separate entries in the source; they are usually repeats but may differ in a detail not shown here. Equal values may be shown once.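 Protocol summary: plate cells (96-well), add compound at 5 concentrations, incubate 48 h, interpolate endpoints linearly. GI50 is the concentration that inhibits growth by half. TGI marks complete inhibition of growth.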

Regarding `CC(C)CNC1=NCC(C)S1` (stereo not given), the TGI in the assay with RXF 393 renal, in the assay on SW-620 colon, in the assay with HCT-116 colon, in the assay with UO-31 renal, with HCC-2998 colon and with RPMI-8226 leukemia was above 100 µM each time. The TGI in the assay on UACC-257 melanoma, in the assay on SR leukemia and in the assay on EKVX NSCLC was above 100 µM in each case.
As for `Cc1[nH]c(C(=O)Nc2ccc(C(=O)NCCN)cc2OC(C)C)c(Cl)c1Cl`, the GI50 was 1.71 µM with RXF 393 renal; 1.54 µM with UO-31 renal; 1.82 µM with HCC-2998 colon; 1.92 µM with RPMI-8226 leukemia; 1.62 µM in the assay with EKVX NSCLC. The TGI in the assay on RXF 393 renal was 3.36 µM; in the assay with UO-31 renal, 2.96 µM; in the assay with HCC-2998 colon, 3.48 µM; with RPMI-8226 leukemia, 4.49 µM; in the assay with EKVX NSCLC, 3.17 µM.
For the compound `C=C(CN(C)C)C(=O)c1ccccc1OC`, the TGI with RXF 393 renal is 23.7 µM; in the assay on SW-620 colon, 19.6 µM; with OVCAR-4 ovarian, 45.9 µM; with HCT-116 colon it was 30.9 µM; in the assay with UO-31 renal, 31.3 µM; in the assay with HCC-2998 colon, 51.1 µM. Moreover, the TGI was above 62.7 µM with RPMI-8226 leukemia, 30 µM in the assay on UACC-257 melanoma, above 56 µM in the assay on SR leukemia and 48.6 µM in the assay with EKVX NSCLC.
As to `COc1cc(/C=N/NC(=O)c2c(Cl)c(Cl)c(Cl)c(Cl)c2-c2nc3ccc(C(=O)c4ccccc4)cc3[nH]2)ccc1O`, the TGI is above 100 µM with RXF 393 renal; above 100 µM with SW-620 colon; above 100 µM in the assay with OVCAR-4 ovarian; above 100 µM in the assay on HCT-116 colon; above 100 µM in the assay on UO-31 renal; 89.5 µM in the assay with RPMI-8226 leukemia. Also, the TGI in the assay with UACC-257 melanoma is above 100 µM; in the assay with SR leukemia it was 54.4 µM; with EKVX NSCLC, above 100 µM.
As to `O=S(=O)(c1ccccc1)C1CC(c2nc3ccccc3[nH]2)=NO1` (stereo not given), the TGI with RXF 393 renal, with SW-620 colon, with OVCAR-4 ovarian, in the assay with HCT-116 colon, in the assay with UO-31 renal and in the assay on HCC-2998 colon was above 100 µM throughout. Besides, the TGI with RPMI-8226 leukemia, with UACC-257 melanoma, with SR leukemia and with EKVX NSCLC was above 100 µM in each case.
As for `C[N+]1(C(CO)Cc2c[nH]c3ccccc23)Cc2ccccc2C1` (stereo not given), the TGI in the assay with RXF 393 renal, in the assay on SW-620 colon, in the assay with OVCAR-4 ovarian, in the assay with HCT-116 colon, in the assay on UO-31 renal and in the assay with HCC-2998 colon was above 100 µM in each case. For the same compound, the TGI in the assay on RPMI-8226 leukemia, in the assay with UACC-257 melanoma, in the assay with SR leukemia and in the assay on EKVX NSCLC was above 100 µM each time.
Consider `CC(C)CCN(CCC(C)C)CC(=O)Nc1ccc(S(=O)(=O)c2ccc(NC(=O)CN(CCC(C)C)CCC(C)C)cc2)cc1`, for which the GI50 in the assay with RXF 393 renal was 1.79 µM; in the assay with SW-620 colon, 1.55 µM; in the assay with OVCAR-4 ovarian it was 2.56 µM; in the assay on UO-31 renal it was 2.07 µM; in the assay on HCC-2998 colon it was 3.2 µM; with UACC-257 melanoma, 3.01 µM. Also, the GI50 in the assay with SR leukemia was 1.72 µM; in the assay with EKVX NSCLC, 3.27 µM. Moreover, the TGI with RXF 393 renal came out at 5.87 µM; with SW-620 colon, 3.74 µM; in the assay on OVCAR-4 ovarian it was 12.7 µM; in the assay on UO-31 renal it was 12.8 µM; in the assay with HCC-2998 colon, 9.71 µM; in the assay with UACC-257 melanoma, 13.6 µM. The TGI with SR leukemia was found to be 5.19 µM; in the assay with EKVX NSCLC, 18.8 µM.
`C[C@]12CC[C@H]3[C@@H](CC=C4C[C@@H](O)CC[C@@]43C)[C@@H]1C/C(=C\c1ccncc1)[C@@H]2O`: the TGI with RXF 393 renal was 38 µM; with SW-620 colon, above 100 µM; with OVCAR-4 ovarian, 39.5 µM; in the assay with HCT-116 colon it was 51.4 µM; in the assay on UO-31 renal it was above 100 µM; in the assay with HCC-2998 colon, above 100 µM. The TGI in the assay on RPMI-8226 leukemia was 48.9 µM; in the assay with UACC-257 melanoma, 40.4 µM; in the assay with SR leukemia, 57.3 µM; in the assay with EKVX NSCLC, 49.1 µM.
In the case of `Cc1ncc(C(=O)Nc2ccc(CN3CCN(C)CC3)c(C(F)(F)F)c2)cc1C#Cc1cnc(N)c2ccc(C#N)cc12`, the GI50 in the assay on HCC-2998 colon is 2.29 µM; with UACC-257 melanoma it was 0.0538 µM; with SR leukemia, 0.0607 µM; in the assay on EKVX NSCLC it was 0.0827 µM. Further, the TGI in the assay on HCC-2998 colon was 24.7 µM; with UACC-257 melanoma, 1.61 µM; in the assay with SR leukemia, above 100 µM; in the assay on EKVX NSCLC, 29.6 µM.
On to `O=C1Nc2cccc(Cl)c2/C1=C\c1cccnc1`, for which the TGI with RXF 393 renal was found to be 7.48 µM; in the assay with SW-620 colon it was 37.7 µM; with OVCAR-4 ovarian, 31.7 µM; in the assay with HCT-116 colon, 11.3 µM; with UO-31 renal, 18.5 µM; in the assay with HCC-2998 colon, 7.86 µM. Moreover, the figures for the TGI in the assay on UACC-257 melanoma and with EKVX NSCLC were 16.8 µM and 93.1 µM, respectively.
Regarding `Cc1csc2nc(-c3cccc([N+](=O)[O-])c3)c(/C=N/N=C(N)N)n12`, the TGI in the assay on SW-620 colon worked out at 2.98 µM; in the assay with OVCAR-4 ovarian, 3.19 µM; in the assay with HCT-116 colon, 3.3 µM; in the assay with UO-31 renal, 2.68 µM; in the assay on HCC-2998 colon, 0.861 µM; in the assay on UACC-257 melanoma, 3.22 µM. Further, the TGI with EKVX NSCLC stood at 2.96 µM.
Turning to `c1ccc(CSC(SCc2ccccc2)c2cccc3ccccc23)cc1`, the TGI in the assay on RXF 393 renal, in the assay with SW-620 colon, in the assay with OVCAR-4 ovarian, in the assay with HCT-116 colon, with UO-31 renal and with HCC-2998 colon was above 10 µM throughout. For the same compound, the TGI with RPMI-8226 leukemia, in the assay with SR leukemia and in the assay with EKVX NSCLC was above 10 µM each time.
For the compound `COC(=O)c1c(O)ccc2c1c1c(n2CCc2ccc(OC)c(OC)c2)C(=O)c2ccccc2C1=O`, the TGI was 39.5 µM in the assay with RXF 393 renal; 35.6 µM in the assay on OVCAR-4 ovarian; 26.7 µM in the assay with HCT-116 colon; 34.6 µM with UO-31 renal; 15.7 µM in the assay with HCC-2998 colon; 28 µM in the assay on RPMI-8226 leukemia. In addition, the TGI is 35.8 µM in the assay on UACC-257 melanoma, 51.3 µM in the assay on SR leukemia and 40.8 µM in the assay on EKVX NSCLC.
For `N#CC1(CCCI)CCCC1`, the TGI with RXF 393 renal was 23 µM; in the assay with SW-620 colon it was above 100 µM; in the assay with HCT-116 colon, above 100 µM; in the assay with UO-31 renal it was above 100 µM; with HCC-2998 colon, above 100 µM; with UACC-257 melanoma, above 100 µM. Further, the TGI in the assay on SR leukemia and with EKVX NSCLC was above 100 µM each time.
Turning to `CC[C@@]1(O)CC(OC2CC(N3CCOCC3)C(O)C(C)O2)c2c(O)c3c(c(O)c2[C@H]1O)C(=O)c1cccc(O)c1C3=O` (stereo not given in full), the TGI in the assay with RXF 393 renal was 0.715 µM and 1.15 µM; in the assay with SW-620 colon it was 5.93 µM and 9.38 µM; with OVCAR-4 ovarian, 1.55 µM and 2.88 µM; in the assay on HCT-116 colon it was 4.27 µM and 3.5 µM; in the assay with UO-31 renal, 1.57 µM and 3.28 µM; with HCC-2998 colon, 0.904 µM and 0.916 µM. Besides, the TGI is 2.15 µM and 5.08 µM with RPMI-8226 leukemia; 1.34 µM and 0.69 µM in the assay with UACC-257 melanoma; 25 µM with SR leukemia; 1.02 µM and 1.63 µM with EKVX NSCLC. Moreover, the GI50 with SW-620 colon was 0.121 µM; with OVCAR-4 ovarian, 0.199 µM; with HCT-116 colon, 0.0149 µM; in the assay on UO-31 renal, 0.437 µM and 0.828 µM; with HCC-2998 colon it was 0.13 µM; with RPMI-8226 leukemia, 0.0561 µM. Also, the GI50 in the assay with UACC-257 melanoma was 0.108 µM; in the assay on EKVX NSCLC, 0.241 µM.
On to `CC(=O)OC(C(=O)O)C(OC(C)=O)C(OC(C)=O)C(OC(C)=O)C(=O)O` (stereo not given), for which the TGI with SW-620 colon, in the assay on HCT-116 colon, with UO-31 renal, in the assay on RPMI-8226 leukemia, in the assay with UACC-257 melanoma and with SR leukemia was above 100 µM throughout. The compound also returned a TGI with EKVX NSCLC above 100 µM.
With `O=C1OC(c2ccc(O)cc2)(c2ccc(O)cc2)c2ccc(Cl)c3cccc1c23` (tested in a mixture with another compound), the TGI with RXF 393 renal is 27.4 µM; in the assay on SW-620 colon it was 33.4 µM; in the assay with OVCAR-4 ovarian it was 0.325 µM; in the assay on HCT-116 colon, 18.9 µM; in the assay with UO-31 renal it was above 75 µM; with RPMI-8226 leukemia, 28.4 µM. In addition, the TGI in the assay on UACC-257 melanoma is 70.1 µM; in the assay on SR leukemia it was 28.4 µM; in the assay on EKVX NSCLC it was 4.88 µM.
For the compound `O=C(O)c1cc2ccccc2c(N=Nc2ccc(S(=O)(=O)Nc3ccccn3)cc2)c1O`, the TGI in the assay on RXF 393 renal, in the assay on SW-620 colon, in the assay on OVCAR-4 ovarian, in the assay on HCT-116 colon, with UO-31 renal and in the assay with HCC-2998 colon was above 100 µM throughout. Also, the TGI in the assay with RPMI-8226 leukemia, in the assay with UACC-257 melanoma, in the assay on SR leukemia and in the assay on EKVX NSCLC was above 100 µM in each case.
Consider `c1ccc(/C(=N\Nc2nc3ccccc3[nH]2)c2ccccn2)cc1`, for which the TGI in the assay on RXF 393 renal was 14.4 µM; with SW-620 colon it was above 69.4 µM; in the assay on OVCAR-4 ovarian, 4.99 µM; in the assay on HCT-116 colon, 4.52 µM; with UO-31 renal, 6.73 µM; with HCC-2998 colon, 4.1 µM. The TGI with RPMI-8226 leukemia is 1.07 µM; with UACC-257 melanoma it was 4.63 µM; in the assay with SR leukemia, above 31.8 µM; with EKVX NSCLC, 2.96 µM.
As to `O=C(CSCC(=O)N/N=C\c1ccc(F)cc1F)N/N=C\c1ccc(F)cc1F`, the TGI in the assay with RXF 393 renal, in the assay on SW-620 colon, in the assay on OVCAR-4 ovarian, with HCT-116 colon, in the assay on UO-31 renal and in the assay with HCC-2998 colon was above 100 µM throughout. Besides, the TGI in the assay on RPMI-8226 leukemia, in the assay with UACC-257 melanoma, in the assay on SR leukemia and with EKVX NSCLC was above 100 µM each time.
For the compound `CCCCCCCCCCCCc1ccc(S(=O)(=O)O)cc1.[Cu+2]`, the TGI in the assay on RXF 393 renal, in the assay with SW-620 colon, in the assay with OVCAR-4 ovarian, in the assay with HCT-116 colon, in the assay with UO-31 renal and with HCC-2998 colon was above 100 µM in each case. Further, the TGI in the assay with RPMI-8226 leukemia, with UACC-257 melanoma and with EKVX NSCLC was above 100 µM each time.
In the case of `COc1ccccc1C#C/C=C\C#Cc1ccccc1C#N`, the TGI in the assay on RXF 393 renal is 83.5 µM; in the assay with SW-620 colon it was 65.7 µM; with OVCAR-4 ovarian, above 100 µM; in the assay on HCT-116 colon, 27.7 µM; with UO-31 renal, 67.2 µM; with HCC-2998 colon it was 47.4 µM. In addition, the TGI with UACC-257 melanoma came to 94.6 µM; in the assay with SR leukemia, 29.9 µM; in the assay with EKVX NSCLC it was 58.7 µM.
